Test results published in patent US20250044299A1, “PROTEIN STABILITY ASSAY” (Medicines Discovery Catapult Limited, priority 2021, published 2025).

Key:
Format in all cases: binding
p38α MAPK = p38α MAPK (Homo sapiens, UniProt Q16539); assay: Protein stability assay screening study, AlphaLISA endpoint, HEK293T cell lysate, compound concentration response at fixed AEA or EA (Example 2); parameters: endogenous in cells; host or cells: HEK293T; conditions: fixed 22% AEA or 20% EA, 10-point concentration response
Description: The fixed denaturant concentration to be added was made up as a 5/4 stock so that when 8 μl of denaturant was added to 2 μl lysate the final volume was 10 μl and the denaturant concentrations were as listed above. After compound/lysate incubation was complete 8 μl of the prepared AEA or EA stock was added to each well of separate plates, the contents of the plates were settled by a short pulse spin, sealed, and then incubated with shaking at 800 rpm for 120 minutes on a heated plate shaker set to 21° C. For signal detection an antibody detection mix was made up no more than 20 minutes prior to use. […] 10 μl of antibody bead mix was added to each test well, the contents of the plates were settled by a short pulse spin, sealed, shaken gently for 1-2 minutes, wrapped in foil, and then incubated for 16-18 hours in the dark. After incubation the plates were read on a fluorescence detecting plate reader (Excitation 680 nm, Emission 615 nm) to determine well signals. Concentration response curves were produced from normalised data using the Genedata Screener data analysis package, and EC50 values generated to allow data comparison between the two denaturant types.

CDK9 = molecular target: T1, CDK9 (Homo sapiens, UniProt P50750); assay: Protein stability assay with Western blot endpoint, cell lysate, AEA titration (Example 5); conditions: 100 μM compound as printed, vs DMSO
T1 construct: Lysate from U-2 OS cells grown in continuous culture; endogenous in cells; b320 says HEK293T
Description: (§1) Lysate from U-2 OS cells grown in continuous culture at 5% CO2/37° C. in full growth media (RPMI (Gibco 11835-063), 10% FCS (Gibco F7524) 1% Glutamax (Gibco 35050-061)) was produced by growing cells in T175 flasks to 85% confluence, removing from the surface using 3 ml Tryple Select (Gibco 12563011), centrifuging (1000 rpm for 4 minutes) to pellet, washing cell pellet two times in DPBS (Gibco 14190-094), resuspending 1 ml of DPBS (Gibco 14190-094) containing 1× HALT Protease and Phosphatase inhibitor cocktail (Thermo Scientific 78440) per flask and lysing by three cycles of a liquid nitrogen freeze followed by thawing at room temperature. […]
Lysate/compound mixes were incubated for 30-60 minutes at room temperature. While incubating, fresh 100% AEA (Acetone (11443733) Ethanol (10437341) and Acetic Acid (10365020), all from Fisher Scientific in a ratio of 50:50:0.1) denaturant was made in a glass bottle ready for use. An aliquot of 100% AEA was diluted to 50% in DPBS (Gibco 14190-094) ready to produce either titration curves or a fixed concentration of denaturant. […]

AKT1 = molecular target: T2, AKT1 (Homo sapiens, UniProt P31749); assay: Protein stability assay, AlphaLISA endpoint, HEK293T cell lysate, EA (Example 8)
T2 construct: endogenous in cells; host or cells: HEK293T
Description: as §1, with “HEK293T” for “U-2 OS”, “in” for “in T175”, “resuspending in” for “resuspending”
To run the protein stability assay, an aliquot of HEK293T cell lysate at 4 μg/μl was thawed at room temperature and 2 μl added to each well of a 384-well White ProxiPlate (Perkin Elmer 6008280) containing […] MK-2206 (LKT Laboratories M400220) or an equivalent volume of DMSO dosed using the Labcyte ECHO. […] While incubating, fresh 100% EA (Ethanol (10437341) and Acetic Acid (10365020), all from Fisher Scientific in a ratio of 100:0.1) denaturant was made in a glass bottle ready for use. An aliquot of 100% EA was diluted to 50% in DPBS (Gibco 14190-094) ready to produce titration curves of denaturant. […]

T2 sequence (P31749 whole entry): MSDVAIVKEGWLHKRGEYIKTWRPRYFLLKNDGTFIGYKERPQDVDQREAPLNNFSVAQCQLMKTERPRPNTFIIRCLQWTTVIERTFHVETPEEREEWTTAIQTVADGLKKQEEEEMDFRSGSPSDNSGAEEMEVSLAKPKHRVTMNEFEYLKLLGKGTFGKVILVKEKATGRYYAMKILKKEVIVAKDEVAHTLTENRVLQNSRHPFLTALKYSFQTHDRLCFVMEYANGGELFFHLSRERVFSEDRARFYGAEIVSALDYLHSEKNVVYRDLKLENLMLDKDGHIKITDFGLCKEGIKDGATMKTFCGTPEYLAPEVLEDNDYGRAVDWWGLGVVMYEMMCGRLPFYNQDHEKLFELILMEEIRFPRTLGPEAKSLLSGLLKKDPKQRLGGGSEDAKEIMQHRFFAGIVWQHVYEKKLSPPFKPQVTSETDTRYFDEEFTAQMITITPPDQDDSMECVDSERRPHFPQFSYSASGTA
p38α MAPK, sequence (Q16539 whole entry): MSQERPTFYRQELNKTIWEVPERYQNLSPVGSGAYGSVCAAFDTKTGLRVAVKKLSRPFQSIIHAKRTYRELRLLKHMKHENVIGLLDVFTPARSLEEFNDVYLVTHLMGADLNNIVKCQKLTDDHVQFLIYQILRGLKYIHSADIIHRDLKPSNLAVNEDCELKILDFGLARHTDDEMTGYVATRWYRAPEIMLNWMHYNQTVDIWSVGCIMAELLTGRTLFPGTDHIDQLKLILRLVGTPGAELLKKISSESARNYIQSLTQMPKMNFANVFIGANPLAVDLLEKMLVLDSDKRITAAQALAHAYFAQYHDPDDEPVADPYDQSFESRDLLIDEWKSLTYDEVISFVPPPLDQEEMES
T1 sequence (P50750 whole entry): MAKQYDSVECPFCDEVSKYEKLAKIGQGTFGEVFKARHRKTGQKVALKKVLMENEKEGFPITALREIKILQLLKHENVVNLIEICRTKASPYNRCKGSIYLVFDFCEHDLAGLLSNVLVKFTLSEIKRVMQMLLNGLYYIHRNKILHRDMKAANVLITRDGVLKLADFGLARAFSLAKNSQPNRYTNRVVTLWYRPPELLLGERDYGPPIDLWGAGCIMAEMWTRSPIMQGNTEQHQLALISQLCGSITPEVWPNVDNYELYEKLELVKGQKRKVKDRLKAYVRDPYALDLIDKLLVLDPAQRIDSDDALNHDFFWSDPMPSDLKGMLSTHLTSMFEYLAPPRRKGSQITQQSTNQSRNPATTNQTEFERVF
T1 sequence (O60563 whole entry partner): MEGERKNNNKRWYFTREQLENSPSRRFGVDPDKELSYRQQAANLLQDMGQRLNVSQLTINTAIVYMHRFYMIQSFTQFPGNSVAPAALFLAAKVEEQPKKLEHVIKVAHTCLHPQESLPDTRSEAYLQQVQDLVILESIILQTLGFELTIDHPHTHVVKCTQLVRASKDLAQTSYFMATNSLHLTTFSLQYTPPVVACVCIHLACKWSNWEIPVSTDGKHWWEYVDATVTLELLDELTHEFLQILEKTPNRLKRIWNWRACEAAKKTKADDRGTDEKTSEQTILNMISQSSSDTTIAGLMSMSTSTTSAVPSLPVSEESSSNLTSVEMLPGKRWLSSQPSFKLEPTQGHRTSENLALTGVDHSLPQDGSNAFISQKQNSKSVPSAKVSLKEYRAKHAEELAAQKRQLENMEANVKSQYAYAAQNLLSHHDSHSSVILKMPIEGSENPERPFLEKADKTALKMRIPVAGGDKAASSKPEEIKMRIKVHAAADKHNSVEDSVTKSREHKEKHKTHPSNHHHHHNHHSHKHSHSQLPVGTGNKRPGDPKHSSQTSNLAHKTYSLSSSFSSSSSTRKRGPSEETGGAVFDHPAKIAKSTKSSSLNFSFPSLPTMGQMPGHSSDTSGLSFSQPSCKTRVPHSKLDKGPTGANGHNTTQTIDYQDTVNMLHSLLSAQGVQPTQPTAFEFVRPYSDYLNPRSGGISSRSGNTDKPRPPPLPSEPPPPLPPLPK

SMILES: Cc1c(F)cc(C(=O)NC2CC2)cc1-c1c(F)cn2c(C(C)(C)C)nnc2c1F [AL 8697]
- stabilisation of protein, compound concentration response curves (p38α MAPK): stabilisation of protein in a dose dependent manner

SMILES: Cc1ncc(-c2ccnc(Nc3ccc(S(C)(=O)=O)cc3)n2)n1C(C)C [AZD5438]
- stabilisation of CDK9 protein against chemical denaturation (CDK9): increased stabilisation of CDK9 protein

SMILES: NC1(c2ccc(-c3nc4ccn5c(=O)[nH]nc5c4cc3-c3ccccc3)cc2)CCC1 [MK-2206]
- stabilisation of AKT1 protein (shift in protein denaturation curves) (AKT1; 10 μM compound, EA titration, vs DMSO only): stabilisation of AKT1 protein
- AKT1 protein stabilisation, concentration response curve (AKT1; fixed 18% EA): AKT1 protein stabilisation by MK-2206 in a dose dependent manner

SMILES: O=c1ncn2nc(Sc3ccc(F)cc3F)ccc2c1-c1c(Cl)cccc1Cl [VX 745]
- stabilisation of protein, compound concentration response curves (p38α MAPK): stabilisation of protein in a dose dependent manner
